In ChEMBL document CHEMBL4616651, “6-Deoxy- and 11-Hydroxytolypodiols: Meroterpenoids from the Cyanobacterium HT-58-2” (J Nat Prod, 2020):
Calls of active or inactive are those of the source. The rule behind the calls is not given here.

Experiments:
Microglia [1] = assay: Antiinflammatory activity against LPS-induced rat Primary neonatal microglia assessed as inhibition in TXB2 generation preincubated for 20 mins followed by PMA-stimulation and measured after 70 mins by immunoassay; assay type: functional, cell-based
Microglia [2] = assay: Antiinflammatory activity against LPS-induced rat Primary neonatal microglia assessed as inhibition in superoxide anion generation preincubated for 20 mins followed by PMA-stimulation and measured after 70 mins by spectrophotometric method; assay type: functional, cell-based
Mus musculus = assay: Antiinflammatory activity in mouse assessed as reduction in PMA induced ear edema topically administered per ear and measured after 200 mins; assay type: functional

SMILES | IC50 (Microglia [1]) | inhibition (Microglia [2]) | ED50 (Mus musculus)
CC(C(=O)O)c1ccc(-c2ccccc2)c(F)c1 (stereo not given) [FLURBIPROFEN] | 100 nM | – | –
COC(=O)c1ccc2c(c1)C[C@H]1[C@]3(C)C[C@@H](O)[C@H]4C(C)(C)CC[C@@H](O)[C@]4(C)[C@H]3[C@@H](O)C[C@]1(C)O2 | 100 nM | inactive | –
C[C@]12CCC(=O)C=C1CC[C@@H]1[C@@H]2[C@@H](O)C[C@@]2(C)[C@H]1CC[C@]2(O)C(=O)CO [HYDROCORTISONE] | – | – | 20 µg
COC(=O)c1ccc2c(c1)C[C@H]1[C@]3(C)C[C@@H](O)[C@H]4C(C)(C)CC[C@@H](O)[C@]4(C)[C@H]3CC[C@]1(C)O2 [TOLYPODIOL] | – | – | 30 µg
